Assay results: patent US20250172566A1, “SACCHARIDE SENSING SYSTEMS” (CARBOMETRICS LIMITED, priority 2022, published 2025)

What was measured:
[1] = Fluorescent hydrogel phase glucose responsive assay (10 mM PBS, pH 7.4, 310 K)
[2] = Affinity electrochemistry - cyclic voltammetry glucose responsive assay (10 mM PBS, pH 7.4, 298 K); conditions: for Applied potential / Current response: FIM 0.5 mM, reduction process
Method: Affinity electrochemistry measurements were made using a Metrohm Autolab PGSTAT101 potentiostat with a BIDSC-FET interface and screen-printed electrodes DRP-200BT. Data collection and analysis were performed using Nova software by Metrohm Autolab. Further analysis and processing were performed in Microsoft Excel. Measurements obtained at 298 K and at pH 7.4 unless otherwise stated.
Separate samples containing a mixture of GBM, FIM and D-glucose at various concentrations in 10 mM PBS were prepared. 50 μL of each sample was pipetted onto the surface of the screen-printed electrode and the cyclic voltammogram acquired using the CV staircase protocol within the Nova software, using the following settings: Start potential at −0.4 V, upper vertex potential at 0.6 V, lower vertex potential at −0.4 V, stop potential at −0.39756 V, number of scans=3, scan rate at 0.1 V/s and Step at 0.00244 V. The data for each voltammogram was exported into Microsoft excel, processed and compared to give the glucose responsive electrochemical results.
Changes in applied potential and current response were monitored using the reduction process observed during the cyclic voltammogram. Measurements obtained at 298 K and pH 7.4 in 10 mM PBS medium.

[3] = Fluorescent solution phase glucose responsive assay (pH 7.4, 298 K)
Method: Fluorescence spectroscopy was performed on either a HORIBA Duetta or BMG Labtech CLARIOstar plus plate reader. Emission spectra were obtained using the appropriate excitation wavelength and at a temperature of either 298 or 310 K and at pH 7.4 unless otherwise stated. Data collection and analysis were performed using EzSpec software by HORIBA or CLARIOstar MARS software by BMG Labtech. Further analysis and processing were performed in Microsoft Excel.
A solution of GBM and FIM at the required concentrations were created in the appropriate media. The emission spectrum of the assay was then acquired by exciting at the designated excitation wavelength to obtain the baseline emission intensity for the assay. Aliquots of 2 M D-glucose (in the same media) were then added to give the required final glucose concentrations (e.g. 15 μL of 2 M D-glucose in 3 mL gives a final D-glucose concentration of 10 mM) and the assay allowed to reach equilibration. The emission spectra were collected after each addition of D-glucose and compared to the original baseline emission, monitoring at the typical emission maximum (Emmax), and the percentage increase or decrease recorded. Emission spectra acquired on either a Horiba Duetta fluorometer or Clariostar plus plate reader.
The glucose responsive fluorescence emission for different combinations of glucose binding molecules (GBM) and fluorescent inhibitor molecules (FIM) at various concentrations and in various media was tested as described above. All results obtained at pH 7.4 and 298 K unless otherwise stated.
All results obtained at pH 7.4 and 298 K unless otherwise stated.
Table 4 provides the composition of the assay media used as the code assigned to each media as used in Tables 1 to 3.

[4] = 20 mM D-glucose, GBM39 50 uM, FIM 2 uM, Ex 470/Emmax 530 nm, hydrogel D (azido PEG star polymer)
[5] = 50 mM D-glucose, GBM39 50 uM, FIM 2 uM, Ex 470/Emmax 530 nm, hydrogel D (azido PEG star polymer)
[6] = 60 mM D-glucose, GBM39 50 uM, FIM 2 uM, Ex 470/Emmax 530 nm, hydrogel D (azido PEG star polymer)
[7] = 80 mM D-glucose, GBM39 50 uM, FIM 2 uM, Ex 470/Emmax 530 nm, hydrogel D (azido PEG star polymer)
[8] = 100 mM D-glucose, GBM39 50 uM, FIM 2 uM, Ex 470/Emmax 530 nm, hydrogel D (azido PEG star polymer)

Compound: C#CCCC(=O)N[C@@H](Cc1cn(CCOCCOCCOCCOc2ccc(CCO[C@@H]3O[C@H](CO)[C@@H](O)[C@H](O)[C@H]3O)cc2)nn1)C(=O)NCC(=O)Nc1ccc2c(c1)C(=O)OC21c2ccc(O)cc2Oc2cc(O)ccc21 [FIM1]
- Change in Emmax for FIM at a particular D-glucose concentration ([1]; 20 mM D-glucose, GBM1 10 uM, FIM 1 uM, Ex 470/Emmax 530 nm, hydrogel D (azido PEG star polymer)): 10%
- Change in Emmax for FIM at a particular D-glucose concentration ([1]; 50 mM D-glucose, GBM1 10 uM, FIM 1 uM, Ex 470/Emmax 530 nm, hydrogel D (azido PEG star polymer)): 20%
- Reversibility of emission on cycling (FIG. 5) ([1]; hydrogel D with GBM1 50 μM and FIM1 5 μM pre-incorporated, cycling 10 mM PBS / 20 mM D-glucose, 310 K, pH 7.4): shows reversibility of hydrogel

Compound: O=C(CNC(=O)[C@H](Cc1cn(CCOCCOCCOCCOc2ccc(CCO[C@@H]3O[C@H](CO)[C@@H](O)[C@H](O)[C@H]3O)cc2)nn1)NC(=O)OC[C@@H]1[C@@H]2CCC#CCC[C@@H]21)Nc1ccc2c(c1)C(=O)OC21c2ccc(O)cc2Oc2cc(O)ccc21 [FIM17]
- Change in Emmax for FIM at a particular D-glucose concentration ([1]; 20 mM D-glucose, GBM30 100 uM, FIM 10 uM, Ex 480/Emmax 520 nm, hydrogel H (amino azide dextran/PEG)): 120%
- Change in Emmax for FIM at a particular D-glucose concentration [1, 4]: 70%
- Change in Emmax for FIM at a particular D-glucose concentration [1, 5]: 175%
- Change in Emmax for FIM at a particular D-glucose concentration [1, 6]: 215%
- Change in Emmax for FIM at a particular D-glucose concentration [1, 7]: 295%
- Change in Emmax for FIM at a particular D-glucose concentration [1, 8]: 380%

Compound: C#CCCC(=O)NCCCC[C@H](NC(=O)[c-]1cccc1)C(=O)NCCOCCOCCOCCn1cc(-c2ccc(CCO[C@@H]3O[C@H](CO)[C@@H](O)[C@H](O)[C@H]3O)cc2)nn1.[Fe+2].c1cc[cH-]c1 [FIM38]
- Applied potential ([2]; 0 mM D-glucose, GBM 0 mM): 0.327 V
- Current response ([2]; 0 mM D-glucose, GBM 0 mM): −4.25 ×10^−6 A
- Applied potential ([2]; 0 mM D-glucose, GBM15 1 mM): 0.280 V
- Current response ([2]; 0 mM D-glucose, GBM15 1 mM): −3.1 ×10^−6 A
- Applied potential ([2]; 1 mM D-glucose, GBM15 1 mM): 0.285 V
- Current response ([2]; 1 mM D-glucose, GBM15 1 mM): −3.75 ×10^−6 A
- Applied potential ([2]; 2 mM D-glucose, GBM15 1 mM): 0.300 V
- Current response ([2]; 2 mM D-glucose, GBM15 1 mM): −4.25 ×10^−6 A
- Applied potential ([2]; 3 mM D-glucose, GBM15 1 mM): 0.306 V
- Current response ([2]; 3 mM D-glucose, GBM15 1 mM): −4.4 ×10^−6 A
- Applied potential ([2]; 4 mM D-glucose, GBM15 1 mM): 0.310 V
- Current response ([2]; 4 mM D-glucose, GBM15 1 mM): −4.5 ×10^−6 A
- Applied potential ([2]; 5 mM D-glucose, GBM15 1 mM): 0.310 V
- Current response ([2]; 5 mM D-glucose, GBM15 1 mM): −4.5 ×10^−6 A
- Glucose responsive cyclic voltammetry (FIG. 10) ([2]; GBM15 1 mM and FIM38 0.5 mM in 10 mM PBS, addition of D-glucose): shows a shift in both applied potential (V) and current response (A)

Compound: C[N+](C)(C)[C@@H](CCCCn1cc(C[C@H](NC(=O)OC[C@@H]2[C@@H]3CCC#CCC[C@@H]32)C(=O)NCCOCCOCCn2cc(CNC(=O)c3ccc4c(c3)C(=O)OC43c4ccc(O)cc4Oc4cc(O)ccc43)nn2)nn1)C(=O)NCC(CO[C@@H]1O[C@H](CO)[C@@H](O)[C@H](O)[C@H]1O)c1ccccc1.O=CO (some centres unmarked) [FIM47]
- Change in Emmax for FIM at a particular D-glucose concentration ([3]; 5 mM D-glucose, GBM15 50 μM, FIM 5 μM, medium B, Ex 470 nm, Emmax 520 nm): 130%
- Change in Emmax for FIM at a particular D-glucose concentration ([3]; 5 mM D-glucose, GBM40 20 uM, FIM 5 uM, Ex 470/Emmax 520 nm, medium B (10 mM PBS)): 265%
- Change in Emmax for FIM at a particular D-glucose concentration ([3]; 10 mM D-glucose, GBM15 50 μM, FIM 5 μM, medium B, Ex 470 nm, Emmax 520 nm): 190%
- Change in Emmax for FIM at a particular D-glucose concentration ([3]; 10 mM D-glucose, GBM40 20 uM, FIM 5 uM, Ex 470/Emmax 520 nm, medium B (10 mM PBS)): 410%
- Change in Emmax for FIM at a particular D-glucose concentration ([3]; 20 mM D-glucose, GBM15 50 μM, FIM 5 μM, medium B, Ex 470 nm, Emmax 520 nm): 260%
- Change in Emmax for FIM at a particular D-glucose concentration ([3]; 20 mM D-glucose, GBM40 20 uM, FIM 5 uM, Ex 470/Emmax 520 nm, medium B (10 mM PBS)): 555%
- Change in Emmax for FIM at a particular D-glucose concentration ([3]; 40 mM D-glucose, GBM15 50 μM, FIM 5 μM, medium B, Ex 470 nm, Emmax 520 nm): 310%
- Change in Emmax for FIM at a particular D-glucose concentration ([3]; 40 mM D-glucose, GBM40 20 uM, FIM 5 uM, Ex 470/Emmax 520 nm, medium B (10 mM PBS)): 710%
- Change in Emmax for FIM at a particular D-glucose concentration ([3]; 60 mM D-glucose, GBM15 50 μM, FIM 5 μM, medium B, Ex 470 nm, Emmax 520 nm): 340%
- Change in Emmax for FIM at a particular D-glucose concentration ([3]; 80 mM D-glucose, GBM15 50 μM, FIM 5 μM, medium B, Ex 470 nm, Emmax 520 nm): 350%
- Change in Emmax for FIM at a particular D-glucose concentration ([3]; 80 mM D-glucose, GBM40 20 uM, FIM 5 uM, Ex 470/Emmax 520 nm, medium B (10 mM PBS)): 860%
- Change in Emmax for FIM at a particular D-glucose concentration [1, 4]: 40%
- Change in Emmax for FIM at a particular D-glucose concentration [1, 5]: 100%
- Change in Emmax for FIM at a particular D-glucose concentration [1, 6]: 120%
- Change in Emmax for FIM at a particular D-glucose concentration [1, 7]: 160%
- Change in Emmax for FIM at a particular D-glucose concentration [1, 8]: 190%

Compound: CC(C)(C)OC(=O)N[C@@H](Cc1cn(CCCC[C@@H](C(=O)NCC(CO[C@@H]2O[C@H](CO)[C@@H](O)[C@H](O)[C@H]2O)c2ccccc2)[N+](C)(C)C)nn1)C(=O)NCCOCCOCCn1cc(CNC(=O)c2ccc3c(c2)C(=O)OC32c3ccc(N)c(S(=O)(=O)[O-])c3Oc3c2ccc(N)c3S(=O)(=O)O)nn1 (some centres unmarked) [FIM50]
- Change in Emmax for FIM at a particular D-glucose concentration ([3]; 5 mM D-glucose, GBM7 50 μM, FIM 2 μM, medium B, Ex 470 nm, Emmax 520 nm): 140%
- Change in Emmax for FIM at a particular D-glucose concentration ([3]; 5 mM D-glucose, GBM15 100 μM, FIM 2 μM, medium B, Ex 470 nm, Emmax 520 nm): 50%
- Change in Emmax for FIM at a particular D-glucose concentration ([3]; 10 mM D-glucose, GBM7 50 μM, FIM 2 μM, medium B, Ex 470 nm, Emmax 520 nm): 180%
- Change in Emmax for FIM at a particular D-glucose concentration ([3]; 10 mM D-glucose, GBM15 100 μM, FIM 2 μM, medium B, Ex 470 nm, Emmax 520 nm): 70%
- Change in Emmax for FIM at a particular D-glucose concentration ([3]; 20 mM D-glucose, GBM7 50 μM, FIM 2 μM, medium B, Ex 470 nm, Emmax 520 nm): 200%
- Change in Emmax for FIM at a particular D-glucose concentration ([3]; 20 mM D-glucose, GBM15 100 μM, FIM 2 μM, medium B, Ex 470 nm, Emmax 520 nm): 90%

Compound: C#CCN(C)c1ccc2nc3ccc(N(C)Cc4cn(CC(CO[C@H]5O[C@@H](CO)[C@H](O)[C@@H](O)[C@@H]5O)c5ccccc5)nn4)cc3[s+]c2c1 (some centres unmarked) [FIM52]
- Applied potential ([2]; 1 mM D-glucose, GBM15 1 mM): −0.287 V
- Current response ([2]; 1 mM D-glucose, GBM15 1 mM): −9.11 ×10^−6 A
- Applied potential ([2]; 2 mM D-glucose, GBM15 1 mM): −0.258 V
- Current response ([2]; 2 mM D-glucose, GBM15 1 mM): −9.52 ×10^−6 A
- Applied potential ([2]; 10 mM D-glucose, GBM15 1 mM): −0.239 V
- Current response ([2]; 10 mM D-glucose, GBM15 1 mM): −10.0 ×10^−6 A
- Applied potential ([2]; 20 mM D-glucose, GBM15 1 mM): −0.231 V
- Current response ([2]; 20 mM D-glucose, GBM15 1 mM): −11.1 ×10^−6 A
- Applied potential ([2]; 50 mM D-glucose, GBM15 1 mM): −0.231 V
- Current response ([2]; 50 mM D-glucose, GBM15 1 mM): −11.4 ×10^−6 A
